Source: article PMC10252614 (International Journal of Molecular Sciences, 2023)

What was measured:
SH-SY5Y cells [1] = test: intracellular ATP, luciferase luminescence assay; type: cell-based, human; settings: 100 µM, 24 h
Method: (§1) Thus, SH-SY5Y cells were incubated with II-6h and III-6a (10 and 100 µM) for 24 h. After the treatment, dehydrogenase activity, glutathione levels, nuclear condensation and fragmentation, and ATP levels were measured (Figure 7). […] The decrease in dehydrogenase activity was found in cells treated with 100 µM II-6h (p < 0.001).
The quantification of intracellular ATP was performed using luciferase luminescence assay. After cell treatment with II-6h and III-6a (10–100 µM), the culture medium was replaced with 100 µL of cold water for cell lysis, incubated for 5 min and centrifuged (4800× g; 5 min; 4 °C). To detect intracellular ATP concentration, 90 µL of the reaction solution was added to 10 µL of a lysate. The reaction solution included 20× reaction buffer (500 mM Tricine buffer, pH 7.8; 10 mM MgSO4, 2 mM Na2EDTA), 5 mg/mL luciferase; 10 mM D-luciferin; 0.1 M DTT and dH2O. Luminometric measurement was performed at Em = 550 nm using SPARK microplate reader (Tecan, Grödig, Austria). The intracellular ATP levels were expressed as the percentage of total ATP level relative to that in the control cells (control = 100%) as mean ± SEM.

SH-SY5Y cells [2] = test: nuclear condensation and fragmentation, Hoechst 33258 assay; type: cell-based, human; settings: 100 µM, 24 h
Method: as §1
To measure nuclear condensation and fragmentation in intact cells, we used fluorescence dye Hoechst 33258 (H33258, 1 mg/mL; Merck, USA). After cell treatment with II-6h (10–100 µM) and III-6a (10–100 µM), the cells grown in a 96-well plate were centrifuged (5 min; 8000g; RT). Then, 70 µL of a supernatant was replaced with 70 µL of PBS 1× and 10 µL of H33258 solution was added to a well. The final concentrations of H33258 in a well was 2 µg/mL. Then, the cells were incubated with H33258 for 5 min and spectrofluorometric measurement was performed at Ex/Em = 352/461 nm using SPARK microplate reader (Tecan, Austria) while incubated at 37 °C. The samples were measured at least in triplicates. After background subtraction, the fluorescence signal was presented in RFU as mean ± SEM.

SMILES | intracellular ATP levels (in words) (SH-SY5Y cells [1]) | nuclear condensation and fragmentation (in words) (SH-SY5Y cells [2])
C#CCN(C)c1nc(NC2CCCCC2)c2ccc(Cl)cc2n1 [II-6h, 7-chloro-N4-cyclohexyl-N2-methyl-N2-(prop-2-yn-1-yl)quinazoline-2,4-diamine] | partial exhaustion of ATP | significant increase
C#CCN(C)c1nc(N)c2cc(OC)ccc2n1 [III-6a, 6-methoxy-N2-methyl-N2-(prop-2-yn-1-yl)quinazoline-2,4-diamine] | – | significant increase
